Test results published in ChEMBL document CHEMBL1667745, “Synthesis and antibacterial evaluation of novel clarithromycin derivatives with C-4″ elongated arylalkyl groups against macrolide-resistant strains” (2011).
≈ marks a conversion by molar mass, not a printed value.

Key:
Type in all cases: functional
[1] = tested on: Streptococcus pyogenes; test: Antimicrobial activity against erythromycin-resistant Streptococcus pyogenes R2 by broth microdilution method
[2] = tested on: Staphylococcus aureus; test: Antimicrobial activity against penicillin-susceptible Staphylococcus aureus P1 by broth microdilution method
[3] = tested on: Streptococcus pneumoniae; test: Antimicrobial activity against erythromycin-resistant Streptococcus pneumoniae AB11 expressing the erm and mef gene by broth microdilution method
[4] = tested on: Streptococcus pyogenes; test: Antimicrobial activity against erythromycin-susceptible Streptococcus pyogenes S2 by broth microdilution method
[5] = tested on: Streptococcus pneumoniae; test: Antimicrobial activity against erythromycin-resistant Streptococcus pneumoniae A22072 expressing the mef gene by broth microdilution method
[6] = tested on: Streptococcus pneumoniae; test: Antimicrobial activity against erythromycin-susceptible Streptococcus pneumoniae ATCC 49619 by broth microdilution method
[7] = tested on: Streptococcus pneumoniae; test: Antimicrobial activity against erythromycin-resistant Streptococcus pneumoniae B1 expressing the erm gene by broth microdilution method
[8] = tested on: Staphylococcus aureus; test: Antimicrobial activity against erythromycin-susceptible Staphylococcus aureus ATCC 25923 by broth microdilution method

SMILES | MIC [1] [mg/L] | MIC [2] [mg/L] | MIC [3] [mg/L] | MIC [4] [mg/L] | MIC [5] [mg/L] | MIC [6] [mg/L] | MIC [7] [mg/L] | MIC [8] [mg/L]
CC[C@H]1OC(=O)[C@H](C)[C@@H](O[C@H]2C[C@@](C)(OC)[C@@H](OC(=O)NCCCC(=O)NCc3ccc(F)cc3)[C@H](C)O2)[C@H](C)[C@@H](O[C@@H]2O[C@H](C)C[C@H](N(C)C)[C@H]2O)[C@](C)(OC)C[C@@H](C)C(=O)[C@H](C)[C@@H](O)[C@]1(C)O | 16 (≈ 16.3 µM) | 1 (≈ 1.02 µM) | 2 (≈ 2.03 µM) | 0.25 (≈ 0.254 µM) | 0.25 (≈ 0.254 µM) | 0.03 (≈ 0.0305 µM) | 1 (≈ 1.02 µM) | 0.12 (≈ 0.122 µM)
CC[C@H]1OC(=O)[C@H](C)[C@@H](O[C@H]2C[C@@](C)(OC)[C@@H](OC(=O)NCCCC(=O)NC3CCCCC3)[C@H](C)O2)[C@H](C)[C@@H](O[C@@H]2O[C@H](C)C[C@H](N(C)C)[C@H]2O)[C@](C)(OC)C[C@@H](C)C(=O)[C@H](C)[C@@H](O)[C@]1(C)O | 8 (≈ 8.35 µM) | 8 (≈ 8.35 µM) | 64 (≈ 66.8 µM) | 0.25 (≈ 0.261 µM) | 2 (≈ 2.09 µM) | 0.03 (≈ 0.0313 µM) | 32 (≈ 33.4 µM) | 0.5 (≈ 0.522 µM)
CC[C@H]1OC(=O)[C@H](C)[C@@H](O[C@H]2C[C@@](C)(OC)[C@@H](OC(=O)NCc3ccc(OC)cc3)[C@H](C)O2)[C@H](C)[C@@H](O[C@@H]2O[C@H](C)C[C@H](N(C)C)[C@H]2O)[C@](C)(OC)C[C@@H](C)C(=O)[C@H](C)[C@@H](O)[C@]1(C)O | 0.12 (≈ 0.132 µM) | 8 (≈ 8.78 µM) | 32 (≈ 35.1 µM) | 0.03 (≈ 0.0329 µM) | 0.25 (≈ 0.274 µM) | 0.03 (≈ 0.0329 µM) | 16 (≈ 17.6 µM) | 0.12 (≈ 0.132 µM)
CCCCCNC(=O)CCCCCNC(=O)O[C@H]1[C@H](C)O[C@@H](O[C@H]2[C@H](C)[C@@H](O[C@@H]3O[C@H](C)C[C@H](N(C)C)[C@H]3O)[C@](C)(OC)C[C@@H](C)C(=O)[C@H](C)[C@@H](O)[C@](C)(O)[C@@H](CC)OC(=O)[C@@H]2C)C[C@@]1(C)OC | 16 (≈ 16.4 µM) | 8 (≈ 8.21 µM) | 128 (≈ 131 µM) | 0.25 (≈ 0.257 µM) | 4 (≈ 4.11 µM) | 0.03 (≈ 0.0308 µM) | 128 (≈ 131 µM) | 0.5 (≈ 0.513 µM)
CCCNC(=O)CCCCCNC(=O)O[C@H]1[C@H](C)O[C@@H](O[C@H]2[C@H](C)[C@@H](O[C@@H]3O[C@H](C)C[C@H](N(C)C)[C@H]3O)[C@](C)(OC)C[C@@H](C)C(=O)[C@H](C)[C@@H](O)[C@](C)(O)[C@@H](CC)OC(=O)[C@@H]2C)C[C@@]1(C)OC | 16 (≈ 16.9 µM) | 2 (≈ 2.11 µM) | 128 (≈ 135 µM) | 0.03 (≈ 0.0317 µM) | 4 (≈ 4.23 µM) | 0.03 (≈ 0.0317 µM) | 128 (≈ 135 µM) | 0.5 (≈ 0.528 µM)
CCCCCNC(=O)O[C@H]1[C@H](C)O[C@@H](O[C@H]2[C@H](C)[C@@H](O[C@@H]3O[C@H](C)C[C@H](N(C)C)[C@H]3O)[C@](C)(OC)C[C@@H](C)C(=O)[C@H](C)[C@@H](O)[C@](C)(O)[C@@H](CC)OC(=O)[C@@H]2C)C[C@@]1(C)OC | 0.12 (≈ 0.139 µM) | 16 (≈ 18.6 µM) | 128 (≈ 149 µM) | 0.03 (≈ 0.0348 µM) | 0.25 (≈ 0.29 µM) | 0.06 (≈ 0.0697 µM) | 32 (≈ 37.2 µM) | 0.25 (≈ 0.29 µM)
CCCCNC(=O)CCCCCNC(=O)O[C@H]1[C@H](C)O[C@@H](O[C@H]2[C@H](C)[C@@H](O[C@@H]3O[C@H](C)C[C@H](N(C)C)[C@H]3O)[C@](C)(OC)C[C@@H](C)C(=O)[C@H](C)[C@@H](O)[C@](C)(O)[C@@H](CC)OC(=O)[C@@H]2C)C[C@@]1(C)OC | 8 (≈ 8.33 µM) | 8 (≈ 8.33 µM) | 128 (≈ 133 µM) | 0.25 (≈ 0.26 µM) | 1 (≈ 1.04 µM) | 0.06 (≈ 0.0625 µM) | 128 (≈ 133 µM) | 0.25 (≈ 0.26 µM)
CCCNC(=O)CCCNC(=O)O[C@H]1[C@H](C)O[C@@H](O[C@H]2[C@H](C)[C@@H](O[C@@H]3O[C@H](C)C[C@H](N(C)C)[C@H]3O)[C@](C)(OC)C[C@@H](C)C(=O)[C@H](C)[C@@H](O)[C@](C)(O)[C@@H](CC)OC(=O)[C@@H]2C)C[C@@]1(C)OC | 32 (≈ 34.9 µM) | 32 (≈ 34.9 µM) | 128 (≈ 139 µM) | 1 (≈ 1.09 µM) | 4 (≈ 4.36 µM) | 0.03 (≈ 0.0327 µM) | 128 (≈ 139 µM) | 0.25 (≈ 0.272 µM)
CC[C@H]1OC(=O)[C@H](C)[C@@H](O[C@H]2C[C@@](C)(OC)[C@@H](OC(=O)NCCCCCC(=O)NCCc3ccc(O)cc3)[C@H](C)O2)[C@H](C)[C@@H](O[C@@H]2O[C@H](C)C[C@H](N(C)C)[C@H]2O)[C@](C)(OC)C[C@@H](C)C(=O)[C@H](C)[C@@H](O)[C@]1(C)O | 64 (≈ 62.5 µM) | 1 (≈ 0.976 µM) | 64 (≈ 62.5 µM) | 0.5 (≈ 0.488 µM) | 8 (≈ 7.81 µM) | 0.06 (≈ 0.0586 µM) | 64 (≈ 62.5 µM) | 0.25 (≈ 0.244 µM)
CC[C@H]1OC(=O)[C@H](C)[C@@H](O[C@H]2C[C@@](C)(OC)[C@@H](OC(=O)NCCCC(=O)NCc3ccccc3)[C@H](C)O2)[C@H](C)[C@@H](O[C@@H]2O[C@H](C)C[C@H](N(C)C)[C@H]2O)[C@](C)(OC)C[C@@H](C)C(=O)[C@H](C)[C@@H](O)[C@]1(C)O | 64 (≈ 66.2 µM) | 4 (≈ 4.14 µM) | 0.25 (≈ 0.259 µM) | 0.25 (≈ 0.259 µM) | 0.5 (≈ 0.517 µM) | 0.03 (≈ 0.031 µM) | 2 (≈ 2.07 µM) | 0.12 (≈ 0.124 µM)
CC[C@H]1OC(=O)[C@H](C)[C@@H](O[C@H]2C[C@@](C)(OC)[C@@H](OC(=O)NCCCCCC(=O)NC3CCCCC3)[C@H](C)O2)[C@H](C)[C@@H](O[C@@H]2O[C@H](C)C[C@H](N(C)C)[C@H]2O)[C@](C)(OC)C[C@@H](C)C(=O)[C@H](C)[C@@H](O)[C@]1(C)O | 32 (≈ 32.4 µM) | 1 (≈ 1.01 µM) | 128 (≈ 130 µM) | 0.12 (≈ 0.122 µM) | 1 (≈ 1.01 µM) | 0.03 (≈ 0.0304 µM) | 128 (≈ 130 µM) | 0.25 (≈ 0.253 µM)
CC[C@H]1OC(=O)[C@H](C)[C@@H](O[C@H]2C[C@@](C)(OC)[C@@H](OC(=O)NCCCC(=O)NCCc3ccc(O)cc3)[C@H](C)O2)[C@H](C)[C@@H](O[C@@H]2O[C@H](C)C[C@H](N(C)C)[C@H]2O)[C@](C)(OC)C[C@@H](C)C(=O)[C@H](C)[C@@H](O)[C@]1(C)O | 8 (≈ 8.03 µM) | 9 (≈ 9.03 µM) | 1 (≈ 1 µM) | 0.5 (≈ 0.502 µM) | 0.5 (≈ 0.502 µM) | 0.03 (≈ 0.0301 µM) | 0.25 (≈ 0.251 µM) | 0.5 (≈ 0.502 µM)
CC[C@H]1OC(=O)[C@H](C)[C@@H](O[C@H]2C[C@@](C)(OC)[C@@H](OC(=O)NCCCC(=O)NC(C)C)[C@H](C)O2)[C@H](C)[C@@H](O[C@@H]2O[C@H](C)C[C@H](N(C)C)[C@H]2O)[C@](C)(OC)C[C@@H](C)C(=O)[C@H](C)[C@@H](O)[C@]1(C)O | 16 (≈ 17.4 µM) | 8 (≈ 8.71 µM) | 128 (≈ 139 µM) | 0.5 (≈ 0.545 µM) | 8 (≈ 8.71 µM) | 0.03 (≈ 0.0327 µM) | 128 (≈ 139 µM) | 0.25 (≈ 0.272 µM)
CC[C@H]1OC(=O)[C@H](C)[C@@H](O[C@H]2C[C@@](C)(OC)[C@@H](OC(=O)NCCCC(=O)NCCc3ccccc3Cl)[C@H](C)O2)[C@H](C)[C@@H](O[C@@H]2O[C@H](C)C[C@H](N(C)C)[C@H]2O)[C@](C)(OC)C[C@@H](C)C(=O)[C@H](C)[C@@H](O)[C@]1(C)O | 1 (≈ 0.986 µM) | 32 (≈ 31.5 µM) | 32 (≈ 31.5 µM) | 0.03 (≈ 0.0296 µM) | 1 (≈ 0.986 µM) | 0.03 (≈ 0.0296 µM) | 32 (≈ 31.5 µM) | 0.25 (≈ 0.246 µM)
